Source: patent publication US7632933B2, “Corticotropin releasing factor 2 receptor agonists” (priority 2002, dated 2009)
Like-named read-outs stand apart in the source and are kept apart here. Ends that are not written are not given here. Peptide text beside a SMILES is read from it.

Legend:
CRF2R = target: T1, CRF2R (Homo sapiens, UniProt Q13324); assay: CRF2R agonist activity (EC50 and Emax), called comparative CRF binding; format: cell-based
T1 sequence (Q13324 1-411): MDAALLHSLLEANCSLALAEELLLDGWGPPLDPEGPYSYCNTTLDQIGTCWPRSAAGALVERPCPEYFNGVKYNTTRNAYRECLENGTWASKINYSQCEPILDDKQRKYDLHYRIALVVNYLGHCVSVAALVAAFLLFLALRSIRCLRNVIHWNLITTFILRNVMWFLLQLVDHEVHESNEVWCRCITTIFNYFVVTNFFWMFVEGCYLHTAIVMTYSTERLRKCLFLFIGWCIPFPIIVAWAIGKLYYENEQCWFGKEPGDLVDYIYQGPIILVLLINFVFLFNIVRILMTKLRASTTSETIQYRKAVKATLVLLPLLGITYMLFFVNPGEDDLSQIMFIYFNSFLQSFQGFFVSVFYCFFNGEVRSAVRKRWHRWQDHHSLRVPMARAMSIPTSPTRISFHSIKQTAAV
Method in brief: (§1)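 Cells expressing only CRF1R or CRF2R (or recombinant receptor) were contacted with peptide or vehicle control. Receptor activation was measured as cAMP induction in cell lysates or via a cAMP-responsive-element reporter gene.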

CRF1R = target: T2, CRF1R (Homo sapiens, UniProt P34998); assay: CRF1R agonist activity (EC50 and Emax), called comparative CRF binding; format: cell-based
T2 sequence (P34998 24-415): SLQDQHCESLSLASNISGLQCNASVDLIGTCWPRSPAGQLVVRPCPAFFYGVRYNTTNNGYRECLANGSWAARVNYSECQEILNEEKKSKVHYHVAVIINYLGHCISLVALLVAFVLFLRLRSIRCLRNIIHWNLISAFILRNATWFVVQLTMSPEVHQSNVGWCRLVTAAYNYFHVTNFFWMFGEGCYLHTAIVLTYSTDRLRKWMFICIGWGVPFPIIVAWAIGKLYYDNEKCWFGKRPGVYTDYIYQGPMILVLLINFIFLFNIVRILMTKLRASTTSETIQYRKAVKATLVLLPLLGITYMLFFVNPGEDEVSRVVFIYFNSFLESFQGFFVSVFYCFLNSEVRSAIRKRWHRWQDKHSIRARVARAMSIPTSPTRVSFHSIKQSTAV
Method in brief: as §1

Compound	EC50 (CRF2R; CRF2R, read-out: CRF2R EC50) [nM]	EC50 (CRF1R; CRF1R, read-out: CRF1R EC50) [nM]	also measured
CC[C@H](C)[C@H](NC(=O)[C@H](CCC(N)=O)NC(=O)[C@H](C)NC(=O)[C@H](CCSC)NC(=O)[C@H](CC(C)C)NC(=O)[C@H](Cc1c[nH]cn1)NC(=O)[C@H](C)NC(=O)[C@H](CC(N)=O)NC(=O)[C@H](C)NC(=O)[C@H](C)NC(=O)[C@H](C)NC(=O)[C@H](CCC(N)=O)NC(=O)[C@H](C)NC(=O)[C@H](CCCNC(=N)N)NC(=O)[C@H](CC(C)C)NC(=O)[C@H](CC(N)=O)NC(=O)[C@H](CCCCN)NC(=O)[C@H](C)NC(=O)[C@H](CCCCN)NC(=O)[C@H](C)NC(=O)[C@@H](NC(=O)[C@H](CC(N)=O)NC(=O)[C@H](Cc1ccccc1)NC(=O)[C@H](CC(C)C)NC(=O)[C@H](CC(C)C)NC(=O)[C@H](CC(N)=O)NC(=O)[C@H](CCSC)NC(=O)[C@@H](NC(=O)[C@H](CC(N)=O)NC(=O)[C@@H](NC(=O)[C@@H]1CCCN1C(=O)[C@@H](NC(=O)[C@H](CC(=O)O)NC(=O)[C@H](CC(C)C)NC(=O)[C@H](CO)NC(=O)[C@H](CC(C)C)NC(=O)[C@@H](NC(=O)[C@H](Cc1ccccc1)NC(=O)[C@H](CCCCN)NC(=O)[C@@H](N)[C@@H](C)O)[C@@H](C)O)C(C)C)[C@@H](C)O)[C@@H](C)CC)[C@@H](C)CC)C(N)=O [hUroIII, reference compound] (H-TKFTLSLDVPTNIMNLLFNIAKAKNLRAQAAANAHLMAQI-NH2)	–	–	EC50 (CRF2R; CRF2R EC50): > 100 nM; EC50 (CRF1R; CRF1R EC50): > 1000 nM
NDDPPISIDLPFQLLRNMIEMARIENEREQAGLNAKYLAEV-NH2 [compound 258]	≥ 100	≥ 1000	–
NDDPPISIDLPLILLRNMIEMARIENEREQAGLNAKYLAEV-NH2 [compound 269]	≥ 100	≥ 1000	–
NDDPPISIDLPLLLLRNMIEMARIENEREQAGLNAKYLAEV-NH2 [compound 268]	≥ 100	≥ 1000	–
NDDPPISIDLPLQLLRNMIEMARIENEREQAGLNAKYLAEV-NH2 [compound 270]	≥ 100	≥ 1000	–
NDDPPISIDLPQYLLRNMIEMARIENEREQAGLNAKYLAEV-NH2 [compound 265]	≥ 100	≥ 1000	–
NDDPPISIDLPTYLLRNMIEMARIENEREQAGLNAKYLAEV-NH2 [compound 266]	≥ 100	≥ 1000	–
NDDPPISIDLPYYLLRNMIEMARIENEREQAGLNAKYLAEV-NH2 [compound 267]	≥ 100	≥ 1000	–
SEEPPISLDLTFHLLREVLEMARAEQLAQQAHTNARILARV-NH2 [compound 161]	> 100	> 100	–
SEEPPISLDVPIGLLQEVLEMARAEQLAQQAHSNRKLMEII-NH2 [compound 162]	> 100	> 100	–
SQEIVLSLDVPIGLLREVLEMTKADQLAQQAHSNRKLLDIA-NH2 [compound 7]	–	–	CRF2R (Emax %) (CRF2R; CRF2R, Emax): (19) %; CRF1R (Emax %) (CRF1R; CRF1R, Emax): (4) %
SQEPPISLDLPFELLREVLEMTKADQLAQQAHSNRKLLDIA-NH2 [compound 97]	≥ 100	≥ 100	–
SQEPPISLDLPFGLLREVLEMTKADQLAQQAHSNRKLLDIA-NH2 [compound 103]	≥ 100	≥ 100	–
SQEPPISLDLPFQLLREVLEMTKADQLAQQAHSNRKLLDIA-NH2 [compound 91]	≥ 100	≥ 100	–
SQEPPISLDLPFYLLREVLEMTKADQLAQQAHSNRKLLDIA-NH2 [compound 96]	≥ 100	≥ 100	–
SQEPPISLDLPIGLLREVLEMTKADQLAQQAHSNRKLLDIA-NH2 [compound 93]	≥ 100	≥ 100	–
SQEPPISLDLPIHLLREVLEMTKADQLAQQAHSNRKLLDIA-NH2 [compound 94]	≥ 100	≥ 100	–
SQEPPISLDLPIQLLREVLEMTKADQLAQQAHSNRKLLDIA-NH2 [compound 100]	≥ 100	≥ 100	–
SQEPPISLDLPLGLLREVLEMTKADQLAQQAHSNRKLLDIA-NH2 [compound 90]	≥ 100	≥ 100	–
SQEPPISLDLPLHLLREVLEMTKADQLAQQAHSNRKLLDIA-NH2 [compound 102]	≥ 100	≥ 100	–
SQEPPISLDLPLQLLREVLEMTKADQLAQQAHSNRKLLDIA-NH2 [compound 95]	≥ 100	≥ 100	–
